Assay results reported in patent US9394261B2, “Aryl amine substituted pyrimidine and quinazoline and their use as anticancer drugs” (National Yang-Ming University, priority 2012, dated 2016).
Entries after “also recorded” stand apart in the source; their conditions may differ. Values belong to the molecule of their own block, whether it stands above or below them.

Legend:
PARP = assay: western blot of PARP cleavage in SK-Hep-1 cells; format: cell-based; conditions: 5 μM, 30 hours (FIG. 4A)
Protocol: (§1) Next, compounds […], 19, and 22 were used to explore whether downregulation of CIP2A lead to suppression of p-Akt. FIG. 4A is the western blot analysis of the effect of the compounds 4, 19, and 22 on phosphorylation of Akt, PARP and Actin. In this western blot analysis, SK-Hep-1 cells were respectively treated with compounds 4, 19, and 22 at a concentration of 5 μM for 30 hours. […] That is, compound 19 and 22 can substantially increase apoptotic cell death to inhibit cancer growth.

p-Akt = assay: western blot of p-Akt in SK-Hep-1 cells; format: cell-based; conditions: for p-Akt level: SK-Hep-1 cells, 5 μM, 30 hours (FIG. 4A)
Protocol: as §1
In other words, in the present of okadaic acid, the activation of PP2A by compound 19-incuced CIP2A inactivation is blocked.

[1] = system: SK-Hep-1 cell lines (a hepatocellular carcinoma (HCC) cell); assay: MTT assay, growth inhibition of SK-Hep-1 cells; format: cell-based; conditions: for IC50: SK-Hep-1 cells, 48 hours
Protocol: MTT assay was used to measure growth inhibition. […] MTT (3-(4,5-dimethylthiazol-2-yl)-2,5-diphenyl tetrazolium bromide) assay was performed as follow.
(§2) The effect of individual test compounds on cell viability was assessed by using the MTT in 6 replicates. Sk-Hep-1 cells were seeded and incubated in 96-well, flat-bottomed plates for 24 hours, and were exposed to various concentrations of test compounds dissolved in DMSO (final concentration, 0.1%) for 48 hours. Controls received DMSO vehicle at a concentration equal to that in drug-treated cells. The medium was removed, replaced by 200 μL of 0.5 mg/mL MTT in 10% fetal bovine serum containing DMEM (Dulbecco's Modified Eagle Medium), and cells were incubated in the carbon dioxide incubator at 37° C. for 2 hours. Supernatants were removed from the wells and the reduced MTT dye was solubilized in 100 μL/well DMSO. Absorbance at 570 nm was determined on a plate reader.
The SK-Hep1 cells were then analyzed with western blot assay and MTT assay.

CIP2A [2] = assay: western blot of CIP2A expression in SK-Hep1 cells; format: cell-based; conditions: SK-Hep-1 cells, 5 μM, 30 hours (FIG. 4A)
Protocol: Accordingly, the pyrimidine and quinazoline derivatives above were screened by using western blot analysis for expression of CIP2A in SK-Hep1 cells. Before the western blot analysis, the SK-Hep-1 cells were maintained in DMEM supplemented with 10% FBS, 100 units/mL penicillin G, 100 μg/mL streptomycin sulfate and 25 μg/mL amphotericin B in a 37° C. humidified incubator in an atmosphere of 5% CO2 in air. In this western blot analysis, SK-Hep1 cells were respectively treated with compounds 1-24 at a concentration of 20 μM for 24 hours. In FIG. 2, the mono-substituted pyrimidine derivatives (compounds 1-5) have no appreciable change in CIP2A expression.
Cell viability, measured by MTT assay, and CIP2A expressions, analyzed by western blot, in response to compound 19 or erlotinib treatment in SK-Hep1 cell line were analyzed. SK-Hep-1 cells were treated with erlotinib and compound 19 at 2.5 and 5 μM for 24 h, respectively. The SK-Hep1 cells were then analyzed with western blot assay and MTT assay.
as §1

EGFR [3] = target: EGFR (Homo sapiens, UniProt P00533); assay: western blot of EGFR phosphorylation in H358 cells; conditions: 1 and 5 μM, 24 hours (FIG. 1C)
Sequence of EGFR (Homo sapiens, UniProt P00533) (P00533 25-1210): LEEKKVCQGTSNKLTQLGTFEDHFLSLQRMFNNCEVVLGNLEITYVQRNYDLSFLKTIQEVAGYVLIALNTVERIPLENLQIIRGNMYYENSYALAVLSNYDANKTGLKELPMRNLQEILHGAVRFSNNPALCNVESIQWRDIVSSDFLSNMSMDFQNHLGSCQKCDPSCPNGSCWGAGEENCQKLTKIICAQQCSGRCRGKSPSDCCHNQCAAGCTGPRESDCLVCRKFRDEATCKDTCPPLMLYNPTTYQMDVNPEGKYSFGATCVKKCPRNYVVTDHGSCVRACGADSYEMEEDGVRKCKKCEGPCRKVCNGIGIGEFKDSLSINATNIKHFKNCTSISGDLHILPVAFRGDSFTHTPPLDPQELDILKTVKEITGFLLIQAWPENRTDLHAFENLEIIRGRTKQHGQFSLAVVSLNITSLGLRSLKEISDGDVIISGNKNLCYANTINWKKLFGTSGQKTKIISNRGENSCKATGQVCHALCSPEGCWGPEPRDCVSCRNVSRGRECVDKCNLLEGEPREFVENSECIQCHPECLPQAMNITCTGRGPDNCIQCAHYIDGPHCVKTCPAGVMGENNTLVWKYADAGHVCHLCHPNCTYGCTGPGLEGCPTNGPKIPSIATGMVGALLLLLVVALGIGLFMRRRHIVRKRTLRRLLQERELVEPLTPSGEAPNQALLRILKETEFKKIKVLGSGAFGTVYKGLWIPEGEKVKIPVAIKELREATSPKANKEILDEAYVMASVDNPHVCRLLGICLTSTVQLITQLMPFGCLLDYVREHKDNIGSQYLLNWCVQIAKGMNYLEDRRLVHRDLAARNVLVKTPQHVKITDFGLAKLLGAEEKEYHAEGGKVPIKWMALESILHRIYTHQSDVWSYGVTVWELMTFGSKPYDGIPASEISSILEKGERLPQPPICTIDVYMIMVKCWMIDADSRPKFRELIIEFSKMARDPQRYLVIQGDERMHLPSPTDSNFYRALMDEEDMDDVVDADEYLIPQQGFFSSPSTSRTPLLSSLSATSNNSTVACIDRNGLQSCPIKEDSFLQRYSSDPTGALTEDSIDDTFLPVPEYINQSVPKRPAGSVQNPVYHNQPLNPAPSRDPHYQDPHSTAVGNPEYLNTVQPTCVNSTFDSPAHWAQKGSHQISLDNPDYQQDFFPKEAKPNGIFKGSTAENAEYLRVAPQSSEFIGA

Huh-7 xenograft tumor = Huh-7 xenograft tumor growth in nude mice; conditions: erlotinib 50 mg/kg/day
Protocol: (§4) The mice were housed in groups and maintained under standard laboratory conditions on a 12-hour light-dark cycle. They were given access to sterilized food and water ad libitum. All experimental procedures using these mice were performed in accordance with protocols approved by the Institutional Laboratory Animal Care and Use Committee of National Taiwan University. Each mouse was inoculated s.c. in the dorsal flank with 1×10^6 HCC cells suspended in 0.1 ml of serum-free medium containing 50% Matrigel (BD Biosciences, Bedford, Mass.). […] Controls received vehicle.
(§5) Tumor growth data points are reported as mean tumor volume±SE.

EGFR [4] = target: T1, EGFR (Homo sapiens, UniProt P00533, DEL746-750); assay: western blot of EGFR phosphorylation in PC9 cells; format: cell-based
T1 construct: endogenous in cells; host or cells: PC9 cells
T1 sequence (P00533 with tags, fused parts or gaps DEL746-750): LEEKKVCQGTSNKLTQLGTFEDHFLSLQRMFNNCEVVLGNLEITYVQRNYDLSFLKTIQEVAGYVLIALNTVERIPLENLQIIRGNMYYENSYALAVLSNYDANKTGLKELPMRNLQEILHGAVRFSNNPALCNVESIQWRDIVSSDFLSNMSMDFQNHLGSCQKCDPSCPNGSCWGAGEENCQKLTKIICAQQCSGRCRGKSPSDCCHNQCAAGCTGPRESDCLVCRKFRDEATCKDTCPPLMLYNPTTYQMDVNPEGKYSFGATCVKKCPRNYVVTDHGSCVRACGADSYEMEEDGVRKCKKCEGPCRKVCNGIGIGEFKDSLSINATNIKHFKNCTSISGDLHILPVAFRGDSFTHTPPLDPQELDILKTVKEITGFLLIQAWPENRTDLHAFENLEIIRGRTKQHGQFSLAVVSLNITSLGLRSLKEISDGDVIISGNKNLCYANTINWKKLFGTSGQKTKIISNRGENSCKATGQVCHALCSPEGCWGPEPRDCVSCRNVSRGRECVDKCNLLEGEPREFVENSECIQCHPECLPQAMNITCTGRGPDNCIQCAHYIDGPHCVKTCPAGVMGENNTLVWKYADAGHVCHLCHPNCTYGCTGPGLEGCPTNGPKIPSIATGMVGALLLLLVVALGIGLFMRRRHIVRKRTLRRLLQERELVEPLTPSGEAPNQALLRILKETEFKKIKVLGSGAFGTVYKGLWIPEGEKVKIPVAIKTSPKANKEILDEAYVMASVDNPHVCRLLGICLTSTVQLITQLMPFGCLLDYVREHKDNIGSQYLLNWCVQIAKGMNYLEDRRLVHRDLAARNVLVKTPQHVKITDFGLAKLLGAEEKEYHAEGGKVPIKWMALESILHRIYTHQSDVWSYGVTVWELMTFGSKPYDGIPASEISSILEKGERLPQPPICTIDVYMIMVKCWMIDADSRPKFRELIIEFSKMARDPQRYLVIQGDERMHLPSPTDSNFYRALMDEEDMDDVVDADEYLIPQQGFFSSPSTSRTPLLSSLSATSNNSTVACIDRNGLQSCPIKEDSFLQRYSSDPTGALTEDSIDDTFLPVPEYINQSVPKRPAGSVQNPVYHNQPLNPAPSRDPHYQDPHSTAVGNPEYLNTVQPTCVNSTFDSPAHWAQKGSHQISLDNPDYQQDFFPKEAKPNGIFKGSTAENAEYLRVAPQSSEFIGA
Protocol: 40 μg/per lane of cell lysates were analyzed by western blot. The antibodies of actin, EGFR, and p-EGFR were from Cell Signaling (Danvers, Mass.). In FIGS. 1A-1B, actin lines are used to show an internal standard for the loading control in this western blot.

PLC5 xenograft tumor = PLC5 xenograft tumor growth in nude mice; conditions: erlotinib 50 mg/kg/day; for effect on PLC5 tumor growth, in words: p.o. daily for 3 weeks, compounds 20 mg/kg/day (FIG. 6A-6B)
Protocol: as §4, §5

SK-Hep-1 cells = assay: apoptotic cell death by flow cytometry (sub-G1) and cell death detection ELISA; format: cell-based; conditions: 2.5 and 5 μM, 24 h (FIG. 4B-4C)
Protocol: FIG. 4B is flow cytometry analysis of cell death induced by compounds 4, 19, and 22 at 5 μM, after 24 h of treatment in SK-Hep-1 cells. The apoptotic cells were assessed by flow cytometry (sub-G1). After Sk-Hep-1 cells were treated with compounds 4, 19, and 22, Sk-Hep-1 cells were trypsinized, collected by centrifugation and resuspended in PBS. After centrifugation, the cells were washed in PBS and resuspended in […] (PI) staining solution. Specimens were incubated in the dark for 30 min at 37° C. and then analyzed with an EPICS Profile II flow cytometer (Coulter Corp., Hialeah, Fla.). All experiments were performed in triplicate
FIG. 4C is ELISA analysis of cell death to analyze effects of compounds 4, 19, and 22 on DNA fragmentation in SK-Hep-1 cells. The effect of compounds 4, 19 and 22 on cell viability was assessed by a cell death detection ELISA kit (Roche Applied Science, Mannheim, Germany). SK-Hep-1 cells were treated with compounds 4 and 19 at 22 at 2.5 and 5 μM for 24 h. The cells were collected and assayed according to the standard protocol provided by the manufacturer.

Hep3B cell lines = assay: MTT assay, growth inhibition of Hep3B cells; format: cell-based; conditions: Homo sapiens
Protocol: as §2
(§3) Next, compounds 19, and 34-36 were screened against a panel of Hep3B cell lines for growth-inhibitory activities. […] Compounds 87-90, 95 and 96 were screened against a panel of PLC5 cell lines for growth-inhibitory activities.

PLC5 cell lines = assay: MTT assay, growth inhibition of PLC5 cells; format: cell-based
Protocol: as §2, §3

CIP2A [5] = assay: western blot of CIP2A expression in PLC/PRF/5 cells; format: cell-based; conditions: 10 μM, 48 hours (FIG. 8)
Protocol: PLC/PRF/5 cells were exposed to compounds 88, 95 and 96 at various doses (5 and 10 μM) for 48 hours. Total lysates were subjected to CIP2A protein analysis by western blot. Actin was used as a loading control.

[6] = p.o. daily, after 21 days of treatment, compounds 8 and 19 20 mg/kg/day

IC50 ([1]; Homo sapiens, SK-HEP1, 48 h): > 40 µM
Compound: Clc1nccc(Nc2ccc(Oc3ccccc3)cc2)n1 [Compound 4, 2-Chloro-N-(4-phenoxyphenyl)pyrimidin-4-amine]
PARP cleavage (PARP): no activity | p-Akt level (p-Akt): no activity | growth-inhibitory activity (MTT), in words ([1]; SK-Hep-1 (HCC) cells): no activity in either assay | inhibiting CIP2A expression (CIP2A [2]): no activity

EGFR phosphorylation inhibition (western blot) (EGFR [3]): devoid of EGFR kinase inhibition | IC50 ([1]; Homo sapiens, SK-HEP1, 48 h): < 10 µM | EGFR kinase inhibition (p-EGFR western blot) (EGFR [4]; PC9 cells, 0.5, 1, 2, 4, and 8 μM, 24 hours (FIG. 1A-1B)): devoid of EGFR kinase inhibition
Compound: C#Cc1cccc(Nc2nc(Cl)nc3cc(OC)c(OC)cc23)c1 [Compound 8, 2-Chloro-N-(3-ethynylphenyl)-6,7-dimethoxyquinazoline-4-amine]
effect on Huh-7 tumor growth, in words (Huh-7 xenograft tumor; p.o. daily for 3 weeks, compounds 20 mg/kg/day (FIG. 7A-7B)): better inhibitory effect on Huh-7 tumors than erlotinib | tumor inhibition, Huh7 cell (Huh-7 xenograft tumor; [6]): 40.3% | effect on PLC5 tumor growth, in words (PLC5 xenograft tumor): significantly reduced the growth of tumor | tumor inhibition, PLC5 cell (PLC5 xenograft tumor; [6]): 45.7%

IC50 [1]: 2.8 µM | EGFR phosphorylation inhibition (western blot) (EGFR [4]; PC9 cells, 2 μM, 24 h (FIG. 3A)): no inhibitory effect on EGFR kinase
Compound: C#Cc1cccc(Nc2nc(NCc3ccccc3)nc3cc(OC)c(OC)cc23)c1 [Compound 22, N^2-Benzyl-N^4-(3-ethynylphenyl)-6,7-dimethoxy quinazoline-2,4-diamine]
cell apoptosis (sub-G1 flow cytometry, DNA fragmentation ELISA) (SK-Hep-1 cells): induced cell apoptosis | PARP cleavage (PARP): inducing PARP cleavage | p-Akt level (p-Akt): reducing p-Akt level; also recorded: reduced Akt phosphorylation | inhibiting CIP2A expression (CIP2A [2]): inhibiting CIP2A expression; also recorded: most potent inhibition of CIP2A expression | effect on PLC5 tumor growth, in words (PLC5 xenograft tumor): significantly reducing the growth of tumor

IC50 (Hep3B cell lines): 3.35 µM
Compound: C#Cc1cccc(Nc2nc(Nc3cccc(NCc4ccccc4)c3)nc3cc(OC)c(OC)cc23)c1 [Compound 34, N^2-(3-(benzylamino)phenyl)-N^4-(3-ethynylphenyl)-6,7-dimethoxyquinazoline-2,4-diamine]

IC50 (Hep3B cell lines): 3.27 µM
Compound: C#Cc1cccc(Nc2nc(Nc3cccc(NC(=O)c4cc(C(F)(F)F)cc(C(F)(F)F)c4)c3)nc3cc(OC)c(OC)cc23)c1 [Compound 35, N-(3-(4-(3-ethynylphenylamino)-6,7-dimethoxyquinazolin-2-ylamino)phenyl)-3,5-bis(trifluoromethyl)benzamide]

IC50 (Hep3B cell lines): 3.38 µM
Compound: C#Cc1cccc(Nc2nc(Nc3cccc(NC(=O)c4cccc(C(F)(F)F)c4)c3)nc3cc(OC)c(OC)cc23)c1 [Compound 36, N-(3-(4-(3-ethynylphenylamino)-6,7-dimethoxyquinazolin-2-ylamino)phenyl)-3-(trifluoromethyl)benzamide]

Compound: C#Cc1cccc(Nc2nc(Nc3ccc(Cl)c(Oc4ccc(C#N)c(Cl)c4)c3)nc3cc(OC)c(OC)cc23)c1 [Compound 88, 2-chloro-4-(2-chloro-5-((4-((3-ethynylphenyl)amino)-6,7-dimethoxyquinazolin-2-yl)amino)phenoxy)benzonitrile]
IC50 (PLC5 cell lines; PLC5, PLC5 cells): 12.7 µM | inhibition of CIP2A expression (CIP2A [5]): high degree of repression of CIP2A

Compound: C#Cc1cccc(Nc2nc(Nc3ccc(Oc4ccc(Cl)c(Cl)c4)cc3)nc3cc(OC)c(OC)cc23)c1 [Compound 90, N^2-(4-(3,4-dichlorophenoxyl)phenyl)-N^4-(3-ethynylphenyl)-6,7-dimethoxyquinazoline-2,4-diamine]
IC50 (PLC5 cell lines; PLC5, PLC5 cells): 0.77 µM

Compound: C#Cc1cccc(Nc2nc(Nc3ccc(Oc4ccc(Cl)c(Cl)c4)cc3)nc3cc(OC)c(OC)cc23)c1 [Compound 95, N^2-(4-(3,4-dichlorophenoxyl)phenyl)-N^4-(3-ethynylphenyl)-6,7-dimethoxyquinazoline-2,4-diamine]
IC50 (PLC5 cell lines; PLC5 cells): 0.95 µM | inhibition of CIP2A expression (CIP2A [5]): high degree of repression of CIP2A

Compound: C#Cc1cccc(Nc2nc(Nc3ccc(Oc4ccc(Cl)cc4)cc3)nc3cc(OC)c(OC)cc23)c1 [Compound 96, N^2-(4-(4-chlorophenoxyl)phenyl)-N^4-(3-ethynylphenyl)-6,7-dimethoxyquinazoline-2,4-diamine]
IC50 (PLC5 cell lines; PLC5, PLC5 cells): 0.61 µM

Compound: C=C1[C@@H](O)[C@@H]2O[C@]3(CC[C@H](/C=C/[C@@H](C)[C@@H]4CC(C)=C[C@@]5(O[C@H](C[C@@](C)(O)C(=O)O)CC[C@H]5O)O4)O3)CC[C@H]2O[C@@H]1[C@@H](O)C[C@H](C)[C@H]1O[C@@]2(CCCCO2)CC[C@H]1C [okadaic acid, reference compound]
p-Akt level in compound 19 treated cells (p-Akt; SK-Hep-1 cells treated with compound 19 (FIG. 5B)): reversed p-Akt level
